In PubChem BioAssay (NCI):
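How tested: cells in 96-well plates exposed to compound for 48 hours at five concentrations. GI50 marks 50% less growth. TGI: concentration producing complete growth inhibition.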

Legend:
Assay in all cases: DTP human tumour cell line panel, 48 h
[1] = tested on: HS 578T breast
[2] = tested on: HOP-62 NSCLC
[3] = tested on: HOP-92 NSCLC
[4] = tested on: HCT-15 colon
[5] = tested on: MALME-3M melanoma
[6] = tested on: 786-0 renal
[7] = tested on: OVCAR-3 ovarian
[8] = tested on: OVCAR-8 ovarian
[9] = tested on: M14 melanoma
[10] = tested on: SN12C renal
[11] = tested on: SF-295 CNS
[12] = tested on: HT29 colon
[13] = tested on: NCI/ADR-RES ovarian
[14] = tested on: HCC-2998 colon
[15] = tested on: EKVX NSCLC
[16] = tested on: MCF7 breast
[17] = tested on: KM12 colon
[18] = tested on: NCI-H226 lung
[19] = tested on: MOLT-4 leukemia
[20] = tested on: UACC-62 melanoma
[21] = tested on: COLO 205 colon
[22] = tested on: SK-OV-3 ovarian
[23] = tested on: K-562 leukemia
[24] = tested on: PC-3 prostate
[25] = tested on: RXF 393 renal
[26] = tested on: A549 NSCLC
[27] = tested on: SF-539 CNS
[28] = tested on: RPMI-8226 leukemia
[29] = tested on: MDA-MB-231 breast
[30] = tested on: ACHN renal
[31] = tested on: SK-MEL-2 melanoma
[32] = tested on: SK-MEL-28 melanoma
[33] = tested on: UACC-257 melanoma
[34] = tested on: SNB-75 CNS
[35] = tested on: OVCAR-4 ovarian
[36] = tested on: CAKI-1 renal
[37] = tested on: UO-31 renal
[38] = tested on: A498 renal
[39] = tested on: NCI-H522 lung
[40] = tested on: MDA-MB-435
[41] = tested on: TK-10 renal
[42] = tested on: U251 CNS
[43] = tested on: NCI-H23 lung
[44] = tested on: SF-268 CNS
[45] = tested on: LOX IMVI melanoma
[46] = tested on: SK-MEL-5 melanoma
[47] = tested on: HL-60(TB) leukemia
[48] = tested on: T-47D breast
[49] = tested on: NCI-H460 lung
[50] = tested on: HCT-116 colon
[51] = tested on: OVCAR-5 ovarian
[52] = tested on: BT-549 breast
[53] = tested on: SNB-19 CNS
[54] = tested on: CCRF-CEM leukemia
[55] = tested on: IGROV1 ovarian
[56] = tested on: SW-620 colon

## COc1ccc(OC)c(/C=C/C(=O)N/N=C/c2ccccc2)c1
[1]
  GI50: 9.07 µM
  TGI: > 100 µM
[2]
  GI50: 4.95 µM
  TGI: > 100 µM
[3]
  GI50: 1.56 µM
  TGI: 13.3 µM
[4]
  GI50: 3.62 µM
  TGI: > 100 µM
[5]
  GI50: 2.12 µM
  TGI: > 100 µM
[6]
  GI50: 7 µM
  TGI: 72.5 µM
[7]
  GI50: 3.15 µM
  TGI: > 100 µM
[8]
  GI50: 5.44 µM
  TGI: 94.6 µM
[9]
  GI50: 2.16 µM
  TGI: 6.77 µM
[10]
  GI50: 4.17 µM
  TGI: 39.9 µM
[11]
  GI50: 1 µM
  TGI: 11.1 µM
[12]
  GI50: 2.1 µM
  TGI: > 100 µM
[13]
  GI50: 1.46 µM
  TGI: 4.29 µM
[14]
  GI50: 2.35 µM
  TGI: 21 µM
[15]
  GI50: 1.59 µM
  TGI: 59.5 µM
[16]
  GI50: 3.79 µM
  TGI: > 100 µM
[17]
  GI50: 0.834 µM
  TGI: 3.75 µM
[18]
  GI50: 30.8 µM
  TGI: > 100 µM
[19]
  GI50: 4.45 µM
  TGI: > 100 µM
[20]
  GI50: 3.55 µM
  TGI: 75.8 µM
[21]
  GI50: 4.8 µM
  TGI: 35.1 µM
[22]
  GI50: 12 µM
  TGI: > 100 µM
[23]
  GI50: 0.488 µM
  TGI: > 100 µM
[24]
  GI50: 5.86 µM
  TGI: 52.1 µM
[25]
  GI50: 3.9 µM
  TGI: 26.6 µM
[26]
  GI50: 4.29 µM
  TGI: > 100 µM
[27]
  GI50: 4.42 µM
  TGI: 25.1 µM
[28]
  GI50: 2.99 µM
  TGI: 9.96 µM
[29]
  GI50: 7.24 µM
  TGI: > 100 µM
[30]
  GI50: 9.66 µM
  TGI: > 100 µM
[31]
  GI50: 2.98 µM
  TGI: 9.32 µM
[32]
  GI50: 8.89 µM
  TGI: > 100 µM
[33]
  GI50: 5.76 µM
  TGI: 33.6 µM
[34]
  GI50: 4.39 µM
  TGI: 37.3 µM
[35]
  GI50: 14.3 µM
  TGI: > 100 µM
[36]
  GI50: 0.443 µM
  TGI: 6.66 µM
[37]
  GI50: 5.9 µM
  TGI: 85.5 µM
[38]
  GI50: 12 µM
  TGI: > 100 µM
[39]
  GI50: 1.57 µM
  TGI: 41.7 µM
[40]
  GI50: 0.283 µM
  TGI: 1.98 µM
[41]
  GI50: 16.6 µM
  TGI: > 100 µM
[42]
  GI50: 3.68 µM
  TGI: > 100 µM
[43]
  GI50: 5.4 µM
  TGI: 87 µM
[44]
  GI50: 7.56 µM
  TGI: > 100 µM
[45]
  GI50: 4.12 µM
  TGI: > 100 µM
[46]
  GI50: 2.95 µM
  TGI: 14.6 µM
[47]
  GI50: 2.03 µM
  TGI: 13.7 µM
[48]
  GI50: 4.86 µM
  TGI: > 100 µM
[49]
  GI50: 2.07 µM
  TGI: 5.62 µM
[50]
  GI50: 2.64 µM
  TGI: 10.2 µM
[51]
  GI50: 18 µM
  TGI: > 100 µM
[52]
  GI50: 4.05 µM
  TGI: 90.4 µM
[53]
  GI50: 4.12 µM
  TGI: > 100 µM
[54]
  GI50: 3.97 µM
  TGI: > 100 µM
[55]
  GI50: 1.51 µM
  TGI: > 100 µM
[56]
  GI50: 1.5 µM
  TGI: 6.23 µM
